Experimental data: patent publication US4868177A, “1,2,3,4-tetrahydro-1,9-acridinediamines, pharmaceutical compositions and use” (priority 1988, dated 1989)
pIC50: −log10 of the molar value. Counter-ions that a name gives are not always drawn.

Molecular target: acetylcholinesterase (Homo sapiens, UniProt P22303)
Test: Cholinesterase Inhibition Assay (photometric method of Ellman et al.)
Type: biochemical
Settings: not given

Chain of acetylcholinesterase (P22303 32-614): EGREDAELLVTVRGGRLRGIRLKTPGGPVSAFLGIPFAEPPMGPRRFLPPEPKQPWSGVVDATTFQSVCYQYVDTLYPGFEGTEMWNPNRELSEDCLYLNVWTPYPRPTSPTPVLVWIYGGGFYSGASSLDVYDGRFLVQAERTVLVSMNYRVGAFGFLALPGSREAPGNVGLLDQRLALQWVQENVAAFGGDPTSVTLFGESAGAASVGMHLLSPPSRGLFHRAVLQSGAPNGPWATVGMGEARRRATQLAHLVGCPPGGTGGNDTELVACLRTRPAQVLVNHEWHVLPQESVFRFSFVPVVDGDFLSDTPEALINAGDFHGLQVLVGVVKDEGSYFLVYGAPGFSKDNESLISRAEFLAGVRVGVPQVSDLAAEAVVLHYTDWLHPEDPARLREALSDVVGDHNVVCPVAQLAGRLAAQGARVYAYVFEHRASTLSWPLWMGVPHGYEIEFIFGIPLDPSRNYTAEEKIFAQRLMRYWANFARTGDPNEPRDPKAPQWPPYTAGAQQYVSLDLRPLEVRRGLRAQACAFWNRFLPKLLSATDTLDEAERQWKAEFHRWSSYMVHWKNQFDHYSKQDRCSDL

| Compound | pIC50 |
| --- | --- |
| CCNC1CCCc2nc3ccccc3c(N)c21 (stereo not drawn) [N1 -Ethyl-1,2,3,4-tetrahydrol, 9-acridinediamine, fumarate, hemi-hydrate] | 5.32 |
| Nc1c2c(nc3ccccc13)CCCC2NCCc1ccccc1 (stereo not drawn) [N1-(2-Phenylethyl)-1,2,3,4-tetrahydro-1,9-acridinediamine] | 4.72 |
| Nc1c2c(nc3ccccc13)CCCC2N1CCOCC1 (stereo not drawn) [1-(4-Morpholinyl)-1,2,3,4-tetrahydro-9-acridinamine] | < 3.00 |
| Nc1c2c(nc3ccccc13)CCCC2N1CCCC1 (stereo not drawn) [1-(1-Pyrrolidinyl)-1,2,3,4-tetrahydro-9-acridinamine] | 4.74 |
| CCCCNC1CCCc2nc3ccccc3c(N)c21 (stereo not drawn) [N1 -Butyl-1,2,3,4-tetrahydro-1,9-acridinediamine] | 4.31 |
| [N-]=[N+]=NC1CCCc2nc3ccccc3c(N)c21 (stereo not drawn) [1-Azido-1,2,3,4-tetrahydro-9-acridinamine, maleate] | 4.92 |
| Nc1c2c(nc3ccccc13)CCCC2NCc1ccccc1 (stereo not drawn) [N1 -Benzyl-1,2,3,4-tetrahydro-1,9-acridinediamine] | 4.70 |
| CCCNC1CCCc2nc3ccccc3c(N)c21 (stereo not drawn) [N1 -Propyl-1,2,3,4-tetrahydro-1,9-acridinediamine] | 4.89 |
| CN1CCN(C2CCCc3nc4ccccc4c(N)c32)CC1 (stereo not drawn) [1-(4-Methyl-1-piperazinyl)-1,2,3,4-tetrahydro-9-acridinamine] | < 3.00 |
| COc1ccc(CNC2CCCc3nc4ccccc4c(N)c32)cc1OC (stereo not drawn) [N1-(3,4-Dimethoxybenzyl)-1,2,3,4-tetrahydro-1,9-acridinediamine] | 4.41 |
| Nc1c2c(nc3ccccc13)CCCC2N1CCN(c2ccccc2)CC1 (stereo not drawn) [1-(4-Phenyl-1-piperazinyl)-1,2,3,4-tetrahydro-9-acridinamine, maleate] | < 3.00 |
| Nc1c2c(nc3ccccc13)CCCC2N1CCCCC1 (stereo not drawn) [1-(1-Piperidinyl)-1,2,3,4-tetrahydro-9-acridinamine] | 5.08 |

Test system: mice
Test: Dark Avoidance Assay (reversal of scopolamine induced memory deficit)
Type: in vivo
Settings: 0.16 mg/kg body weight, retested 24 hours later
Description: This utility can also be ascertained by determining the ability of these compounds to restore cholinergically deficient memory in the Dark Avoidance Assay. In this assay mice are tested for their ability to remember an unpleasant stimulus for a period of 24 hours. A mouse is placed in a chamber that contains a dark compartment; a strong incadescent light drives it to the dark compartment, where an electric shock is administered through metal plates on the floor. The animal is removed from the testing apparatus and tested again, 24 hours later, for the ability to remember the electric shock.
If scopolamine, an anticholinergic that is known to cause memory impairment, is administered before an animal's initial exposure to the test chamber, the animal re-enters the dark compartment shortly after being placed in the test chamber 24 hours later. This effect of scopolamine is blocked by an active test compound, resulting in a greater interval before re-entry into the dark compartment.
The results for an active compound are expressed as the percent of a group of animals in which the effect of scopolamine is blocked, as manifested by an increased interval between being placed in the test chamber and re-entering the dark compartment.

| Compound | % of animals with scopolamine induced memory deficit reversal [%] |
| --- | --- |
| Nc1c2c(nc3ccccc13)CCCC2N1CCCCC1 (stereo not drawn) [1-(1-Piperidinyl)-1,2,3,4-tetrahydro-9-acridinamine] | 13 |

Same assay, conditions: 0.31 mg/kg body weight, retested 24 hours later

| Compound | % of animals with scopolamine induced memory deficit reversal [%] |
| --- | --- |
| CNC(=O)Oc1ccc2c(c1)[C@]1(C)CCN(C)[C@@H]1N2C [Physostigmine, reference compound] | 20 |
| CCCNC1CCCc2nc3ccccc3c(N)c21 (stereo not drawn) [N1 -Propyl-1,2,3,4-tetrahydro-1,9-acridinediamine] | 20 |
